Data on 3 compounds can be found in patent US7211579B2, “NK-1 receptor antagonists” (Hoffmann-La Roche Inc., priority 2005, dated 2007).

For one data set, the target named is T1, human NK1 receptors (Homo sapiens, UniProt P25103).
T1 construct: expressed in transfected cells; host or cells: CHO cells infected using the Semliki virus expression system; membrane suspension used
Description: NK1 receptor binding, [3H]substance P displacement. The conditions noted are these: human NK1 receptor in CHO cells, [3H]substance P 0.6 nM; read-out: affinity to the NK-1 receptor, given as pKi (converted). As for the experimental part: The compounds were investigated in accordance with the tests given hereinafter. The affinity of test compounds for the NK1 receptor was evaluated at human NK1 receptors in CHO cells infected with the human NK1 receptor (using the Semliki virus expression system) and radiolabelled with [^3H]substance P (final concentration 0.6 nM). Binding assays were performed in HEPES buffer (50 mM, pH 7.4) containing BSA (0.04%) leupeptin (8 μg/ml), MnCl2 (3 mM) and phosphoramidon (2 μM). Binding assays consisted of 250 μl of membrane suspension (1.25×10^5 cells/assay tube), […] of buffer of displacing agent and 125 μl of [^3H]substance P. Displacement curves were determined with at least seven concentrations of the compound. The assay tubes were incubated for 60 min at room temperature after which time the tube contents were rapidly filtered under vacuum through GF/C filters presoaked for 60 min with PEI (0.3%) with 2×2 ml washes of HEPES buffer (50 mM, pH 7.4). The radioactivity retained on the filters was measured by scintillation counting. All assays were performed in triplicate in at least 2 separate experiments.
The affinity to the NK-1 receptor, given as pKi is described in the table below: […]

Data set [1] in a line: Metabolic stability in vitro in microsomes. It counts as in vitro ADME. The conditions noted are these: in comparison with 2-(3,5-bis-trifluoromethyl-phenyl)-N-methyl-N-[6-(4-methyl-piperazin-1-yl)-4-o-tolyl-pyridin-3-yl]-isobutyramide.
Data set [2] is described as follows: PAMPA PSR4p permeability assay. It counts as in vitro ADME. The conditions noted are these: for Acceptor (sample distribution) / Donor (sample distribution) / Membrane (sample distribution) / PE (permeation constant) / PE class: pH 6.5, DMSO stock solution. As to the method:
The permeability has been searched by the PAMPA PSR4p assay, which is based on 96 well microplates. The permeability is measured using a “sandwich” construction. A filterplate is coated with phospholipids (membrane) and placed into a donor plate containing a drug/buffer solution. Finally the filterplate is filled with buffer solution (acceptor). The donor concentration is measured at t-start (reference) and compared with the donor and acceptor concentration after a certain time t-end.
The following setup is used for the PAMPA PSR4p assay: • Donor: 0.05 M MOPSO buffer at ph 6.5+0.5% (w/v) Glyco cholic acid • Membrane: 10% (w/v) Egg lecithin+0.5% (w/v) cholesterol in dodecane • Acceptor: 0.05 MOPSO buffer at pH 6.5
The liquid handling is done with a TECAN RSP150 pipetting robot. The drug analysis is based on UV spectroscopy. All samples are transferred into 96 well UV plates. A SpectralMax 190 UV plate reader is used to collect the UV spectras.
The pipetting steps can be divided into four parts: 1. Dilution of stock solutions and filtration, 2. Preparation of reference and PAMPA PSR4p sandwich, 3. Transfer of acceptor solutions into UV plate, 4. Transfer of donor solutions into UV plate. The PAMPA PSR4p assay contains information about the sample precipitation in the donor buffer UV spectras of the sample, read at the start of the assay (t-start: reference) and at the end (t-end: donor, acceptor) allow the determination of a sample distribution in donor, membrane and acceptor. Because of the known permeation time (t-end, t-start) a permeation constant can be retrieved.
(In general: The PAMPA barrier holds no transporters, so it reflects passive diffusion.)

A short description of another data set: Equilibrium solubility. The conditions noted are these: for solubility at 24 h: 21 °C, aqueous buffer, thermodynamic from solid. It counts as physicochemical. As for the experimental part: Method Description Equilibrium Solubility
[…] A known amount of drug, generally 1–2 mg, was added to 250 μl of buffer (glass tubes), and the resulting suspension was stirred for 2 h (21° C.), after 5 minutes of sonification. The pH of the solution was checked and corrected if necessary (in case of pH correction, the solution was once more shaken and equilibrated), and after 24 h the suspension was filtered through a 0.65-μm filter. The filtered solution was then assayed by HPLC to determine the drug concentration. In cases where the drug had completely dissolved in the buffer, the value for equilibrium solubility was assumed to be higher than the value determined by HPLC and was reported as such. Stock solutions (˜1 mg/ml) in DMSO were used in the preparation of a calibration curve in the related buffer using HPLC analytics.

Setting [3] is: buffer 0.05 M Phosphate, pH 6.5 (EP 1 035 115) / pH 6.7 (Compound I-2).

Broadly, the solubility is the dissolved amount per volume that the medium holds.

In brackets after ≈: the same amount, converted by molar mass.

T1 sequence (P25103 whole entry): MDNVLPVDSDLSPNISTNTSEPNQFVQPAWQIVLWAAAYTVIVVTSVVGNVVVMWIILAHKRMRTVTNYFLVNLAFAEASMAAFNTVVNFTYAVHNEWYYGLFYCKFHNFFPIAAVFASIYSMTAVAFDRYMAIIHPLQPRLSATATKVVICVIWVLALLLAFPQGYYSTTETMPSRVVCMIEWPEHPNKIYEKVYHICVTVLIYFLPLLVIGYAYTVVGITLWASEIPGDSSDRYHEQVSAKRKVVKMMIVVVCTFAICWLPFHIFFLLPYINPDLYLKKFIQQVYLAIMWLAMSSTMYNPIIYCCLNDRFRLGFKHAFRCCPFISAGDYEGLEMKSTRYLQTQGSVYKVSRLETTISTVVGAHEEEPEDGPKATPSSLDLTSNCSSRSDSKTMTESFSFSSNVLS

For the compound `Cc1ccccc1-c1cc(N2CC[N+](C)([O-])CC2)ncc1N(C)C(=O)C(C)(C)c1cc(C(F)(F)F)cc(C(F)(F)F)c1` [Compound I-1, 2-(3,5-Bis-trifluoromethyl-phenyl)-N-methyl-N-[6-(4-methyl-4-oxy-piperazin-1-yl)-4-o-tolyl-pyridin-3-yl]-isobutyramide], the Ki at human NK1 receptors is 1 nM. Besides, in data set [1], the “metabolic stability in vitro in microsomes” value is on record as “higher metabolic stability”.

Turning to `CN1CCN(c2cc(-c3ccccc3CO)c(N(C)C(=O)C(C)(C)c3cc(C(F)(F)F)cc(C(F)(F)F)c3)cn2)CC1` [Compound I-2, 2-(3,5-Bis-trifluoromethyl-phenyl)-N-[4-(2-hydroxymethyl-phenyl)-6-(4-methyl-piperazin-1-yl)-pyridin-3-yl]-N-methyl-isobutyramide], the Ki on human NK1 receptors is 0.794 nM. In data set [2], the “permeation speed compared with the corresponding compound of EP 1 035 115” value was “three times higher”, the Acceptor (sample distribution) came to 3%, the Donor (sample distribution) worked out at 26% and the Membrane (sample distribution) stood at 72%. Moreover, in data set [2], the “PE (permeation constant)” value amounted to 1.81 cm/s × 10^−6 and the PE class result is “high”. Besides, in the data set “Equilibrium solubility”, the “solubility, fold higher than the compared compound disclosed in EP 1035 115” value is on record as 8 fold. Further, the solubility at 24 h in the data set “Equilibrium solubility” (setting [3]) came out at 8 µg/mL (≈ 13.5 µM). In the data set “Equilibrium solubility” (buffer 0.15 M Citrate, pH 4.1), this compound showed a solubility at 24 h of 200 µg/mL (≈ 336 µM).

Consider `Cc1ccccc1-c1cc(N2CCN(C)CC2)ncc1N(C)C(=O)C(C)(C)c1cc(C(F)(F)F)cc(C(F)(F)F)c1` [EP 1 035 115, 2-(3,5-bis-trifluoromethyl-phenyl)-N-methyl-N-[6-(4-methyl-piperazin-1-yl)-4-o-tolyl-pyridin-3-yl]-isobutyramide, reference compound], for which, in data set [2], the Acceptor (sample distribution) amounted to 2%, the Donor (sample distribution) came out at 50%, the Membrane (sample distribution) was determined as 49% and the “PE (permeation constant)” value was 0.56 cm/s × 10^−6. Moreover, the PE class entry in data set [2] is “medium”. Also, the solubility at 24 h in the data set “Equilibrium solubility” (setting [3]) worked out at 1 µg/mL (≈ 1.73 µM). In the data set “Equilibrium solubility” (buffer 0.15 M Citrate, pH 4.1), the solubility at 24 h is 26 µg/mL (≈ 44.9 µM).
